Assay results published in ChEMBL document CHEMBL1137606, “Synthesis of novel phytosphingosine derivatives and their preliminary biological evaluation for enhancing radiation therapy” (2007).
Calls of active or inactive are those of the source. No cut-off for these calls is given here.

What was measured:
[1] = tested on: Jurkat; assay: Cytotoxicity against human Jurkat cells at 10 uM after 30 mins; assay type: functional, cell-based
[2] = tested on: Jurkat; assay: Cytotoxicity against gamma irradiated human Jurkat cells at 10 uM after 30 mins relative to control; assay type: functional

CCCCCCCCCCCCCC[C@@H](O)[C@@H](O)[C@@H](N)CO
Activity [1]: Active
Activity [2]: inactive

CCCCCCCCCCCCCC[C@@H](O)[C@@H](O)[C@H](CO)NC(=O)COCc1ccccc1
Activity [2]: 11%

CCCCCCCCCCCCCC[C@@H](O)[C@@H](O)[C@H](CO)NC(=O)CCCCCCCCC(=O)OC
Activity [1]: Active
Activity [2]: inactive

CCCCCCCCCCCCCC[C@@H](O)[C@@H](O)[C@H](CO)NC(=O)CCC(=O)OCC
Activity [2]: 12%

CCCCCCCCCCCCCC[C@@H](O)[C@@H](O)[C@H](CO)NC(=O)CCCC(=O)OCC
Activity [2]: 19%
